# Source: article PMC7018972, “Novel and selective inactivators of Triosephosphate isomerase with anti-trematode activity” (Scientific Reports, 2020)
# Legend:
# FhTIM = FhTIM (Fasciola hepatica, UniProt S4UI50); assay: Microscale thermophoresis (MST) binding to FhTIM
# Protocol: MST experiments were performed according to the NanoTemper technologies protocol in a Monolith NT.115 (red/blue) instrument (NanoTemper Technologies, München, Germany[36]). With this technique, the diffusion behavior of a labeled protein is measured when an infrared light excites the movement of the protein in capillaries. This behavior is the combination of two effects: the fast, local environment-dependent responses of the fluorophore to the temperature jump and the slower diffusive thermophoresis fluorescence changes. It will be modified when the protein is complexed with increasing amounts of unlabeled partners, leading to titration curves that can be fit for Kd estimation. In practice, FhTIM was labeled with the Monolith His-Tag Labeling Kit RED-tris-NTA (NanoTemper Technologies, München, Germany), as described by the manufacturer. The experiments were performed using 20% and 40% MST power and between 20–80% LED power at 24 °C. The MST traces were recorded using the standard parameters: 5 s MST power off, 30 s MST power on, and 5 s MST power off. The compounds were used at high concentrations (around 5 mM) in the bindings check assay with DMSO at 5% v/v. If the binding check was positive, then the affinity determination was performed with the same experimental settings, with serial 2x dilutions of the compound of interest.
# human (HsTIM) = target: T1, human (HsTIM) (Homo sapiens, UniProt P60174); assay: Selectivity assay, inhibition of HsTIM; format: biochemical; conditions: read-out: inhibition against HsTIM
# T1 construct: made in house; host or cells: Escherichia coli
# T1 sequence (P60174 whole entry): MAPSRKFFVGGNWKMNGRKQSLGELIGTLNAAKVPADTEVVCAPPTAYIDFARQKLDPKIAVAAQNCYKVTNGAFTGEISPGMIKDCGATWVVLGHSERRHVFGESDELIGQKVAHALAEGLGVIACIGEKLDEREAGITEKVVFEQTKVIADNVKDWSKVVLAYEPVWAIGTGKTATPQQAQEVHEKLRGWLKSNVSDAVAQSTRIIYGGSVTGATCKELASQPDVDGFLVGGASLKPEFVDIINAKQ
# Protocol: (§1) Expression and purification of proteins: FhTIM, RabbitTIM and HsTIM were expressed in Escherichia coli and purified as described in the literature[31],[37]. After purification, the enzyme, dissolved in 100 mM triethanolamine, 10 mM EDTA and 1 mM dithiothreitol (pH 8), was precipitated with ammonium sulfate (75% saturation) and stored at 4 °C. Before use, extensive dialysis against 100 mM triethanolamine/10 mM EDTA (pH 7.4) was performed. Protein concentration was determined by absorbance at 280 nm for FhTIM (ε = 33,460 M^−1cm^−1) and for RabbitTIM and HsTIM (ε = 33,460 M^−1cm^−1). Enzymatic activity was determined following the conversion of glyceraldehydes-3-phosphate into dihydroxyacetone phosphate in a coupled enzyme assay. The decrease in absorbance at 340 nm was followed in a multiplate reader VarioskanTM Flash Multimode Reader (Thermo ScientificTM, Waltham, MA, USA) at 38 °C. The reaction mixture (1 mL, pH 7.4) contained 100 mM triethanolamine, 10 mM EDTA, 0.2 mM NADH, 1 mM glyceraldehydes-3-phosphate and 0.9 units of α-glycerol phosphate dehydrogenase. The reaction was initiated by the addition of 5 ng/mL of the TIM of interest. For the inhibition studies, TIM was incubated at a concentration of 5 mg/mL in a buffer containing 100 mM triethanolamine, 10 mM EDTA, pH 7.4 and 10% of DMSO at 37 °C for 1 h. The mixture also contained the compounds, dissolved in DMSO, at the indicated concentrations. After 1 h, 10 µL were withdrawn and added to a final volume of 100 µL of the reaction mixture for the activity assay. The inhibition assay was performed in a 96-well microplate. None of the molecules tested here affected the activity of α-glycerol phosphate dehydrogenase, the enzyme used in the coupled assay. The IC50 value was taken as the concentration of drug needed to reduce the enzymatic activity to 50% by analysis using OriginLab8.5® sigmoidal regression (% of enzymatic activity vs. the logarithm of the compound concentration). The experiments were performed in triplicate in two independent experiments.
# rabbit TIM = target: T2, rabbit TIM (Oryctolagus cuniculus, UniProt P00939); assay: Selectivity assay, inhibition of rabbit TIM; format: biochemical; conditions: read-out: inhibition against rabbit TIM
# T2 construct: made in house; host or cells: Escherichia coli
# T2 sequence (P00939 whole entry): as the sequence (P60174 whole entry) above, with Q20K, S21N, G27T, A119S counted along it
# Protocol: as §1
# [1] = tested on: newly excysted juvenile (NEJ) F. hepatica; assay: In vitro NEJ treatment; format: cell-based, Fasciola hepatica; conditions: for IC50: Fasciola hepatica, NEJ
# Protocol: F. hepatica metacercariae were acquired from DILAVE, MGAP, Uruguay. NEJ were obtained by in vitro excystement as previously described with minor modifications. Briefly, metacercariae were incubated with 1% sodium hypochlorite for 5 min at room temperature to remove the outer cyst wall and then washed exhaustively with PBS 200 U/mL Penicillin G sulfate, […] streptomycin sulfate, 500 ng/mL amphotericin B, 10 mM HEPES, counted and divided into groups of around 20 parasites that were transferred to 12 wells tissue culture plates. Parasites were maintained at 37 °C, 5% CO2 in modified Basch’s medium. At day 1, compounds were added at the indicated concentrations and 0.5% DMSO was added to control groups; each condition was tested in duplicate. NEJ behavior was monitored under a light microscope (Olympus BX41), every day each well was recorded for a minute in order to assess parasite motility and registered using the following score: 3- normally active; 2- reduced activity (sporadic movement); 1- immotile (dead)[48].
# FhTIM, sequence (S4UI50 entry or part of it): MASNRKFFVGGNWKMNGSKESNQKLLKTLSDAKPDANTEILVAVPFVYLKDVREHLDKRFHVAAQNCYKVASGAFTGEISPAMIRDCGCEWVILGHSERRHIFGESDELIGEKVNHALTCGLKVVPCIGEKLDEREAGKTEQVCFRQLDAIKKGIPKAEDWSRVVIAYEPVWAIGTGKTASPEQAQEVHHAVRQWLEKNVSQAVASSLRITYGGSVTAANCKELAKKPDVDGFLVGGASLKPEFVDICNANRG
IC50 ([1]; incubation time 72 h),Compound,Kd (FhTIM; 24 °C),Kd (FhTIM; abstract),inhibition at 100 µM (human (HsTIM)),inhibition at 100 µM (rabbit TIM),IC50 ([1]; incubation time 4 h),"concentration of effect against juvenile and adult forms of F. hepatica ([1]; both forms, at 48 h)"
,Cc1ccc(-c2nsc(S(=O)(=O)c3ccc(C)cc3)n2)cc1 [Compound 187],0.07 ± 0.01 µM,0.066 µM,< 20%,< 20%,3 ± 0.5 µM,
> 50 µM,"CSc1nc2cc(Cl)c(Oc3cccc(Cl)c3Cl)cc2[nH]1 [Compound 1278, triclabendazole, reference compound]",1000 µM,,< 20%,< 20%,,more than 50 µM
